In brackets after ≈: the same amount, converted by molar mass. Positions of bridges follow the written chain, without caps; N, C: chain ends. Non-standard residues stand in square brackets, D forms with d. Residues, ends and D or L forms follow the SMILES beside them. *: point of attachment. Heptanoyl(6-Me) = CC(C)CCCCC(=O)*; Dab = NCC[C@H](N)C(=O)O
Columns and labels:
[1] = Compound was tested for acute toxicity in mice upon intravenous administration; type: organism-based; details: mouse, in vivo
Pseudomonas = test: Compound was tested for antibacterial activity against Pseudomonas organism; type: functional
Mus musculus = organism: Mus musculus; test: Compound was tested for protection against Pseudomonas infection in mice; type: functional; details: read-out: PD50
Staphylococcus = test: Compound was tested for antibacterial activity against Staphylococcus organism; type: functional
[2] = Ratio of LD50 to PD50 was evaluated.; type: ADME, organism-based; details: mouse, in vivo
Escherichia coli = test: Compound was tested for antibacterial activity against Escherichia coli organism; type: functional

Row | SMILES | LD50 [1] | MIC (Pseudomonas) | ED50 (Mus musculus) | MIC (Staphylococcus) | selectivity ratio [2] | MIC (Escherichia coli)
1 | CC(C)CCCCC(=O)N[C@@H](CCN)C(=O)N[C@H](C(=O)N[C@@H](CCN)C(=O)N[C@H]1CCNC(=O)[C@H]([C@@H](C)O)NC(=O)[C@H](CCNC(=O)[C@@H](N)Cc2ccc(O)cc2)NC(=O)[C@H](CCN)NC(=O)[C@H](CC(C)C)NC(=O)[C@@H](Cc2ccccc2)NC(=O)[C@H](CCN)NC1=O)[C@@H](C)O | 19 mg/kg | 0.073 µg/mL (≈ 0.054 µM) | 2.2 mg/kg | 2.2 µg/mL (≈ 1.63 µM) | 8.6 | 0.175 µg/mL (≈ 0.129 µM)
2 | CC(C)CCCCC(=O)N[C@@H](CCN)C(=O)N[C@H](C(=O)N[C@@H](CCN)C(=O)N[C@H]1CCNC(=O)[C@H]([C@@H](C)O)NC(=O)[C@H](CCNC(=O)[C@@H](N)C[C@H](CCN)C(=O)OCc2ccccc2)NC(=O)[C@H](CCN)NC(=O)[C@H](CC(C)C)NC(=O)[C@@H](Cc2ccccc2)NC(=O)[C@H](CCN)NC1=O)[C@@H](C)O | 13 mg/kg | 0.087 µg/mL (≈ 0.0599 µM) | 2 mg/kg | 0.445 µg/mL (≈ 0.307 µM) | 6.5 | 0.146 µg/mL (≈ 0.101 µM)
3 | CC(C)CCCCC(=O)N[C@@H](CCN)C(=O)N[C@H](C(=O)N[C@@H](CCN)C(=O)N[C@H]1CCNC(=O)[C@H]([C@@H](C)O)NC(=O)[C@H](CCNC(=O)[C@@H](N)CCCN=C(N)N)NC(=O)[C@H](CCN)NC(=O)[C@H](CC(C)C)NC(=O)[C@@H](Cc2ccccc2)NC(=O)[C@H](CCN)NC1=O)[C@@H](C)O | 15 mg/kg | 0.03 µg/mL (≈ 0.0223 µM) | 0.25 mg/kg | 2 µg/mL (≈ 1.49 µM) | 60 | 0.16 µg/mL (≈ 0.119 µM)
4 | CC(C)CCCCC(=O)N[C@@H](CCNC(=O)CN)C(=O)N[C@H](C(=O)N[C@@H](CCN)C(=O)N[C@H]1CCNC(=O)[C@H]([C@@H](C)O)NC(=O)[C@H](CCN)NC(=O)[C@H](CCN)NC(=O)[C@H](CC(C)C)NC(=O)[C@@H](Cc2ccccc2)NC(=O)[C@H](CCN)NC1=O)[C@@H](C)O [listing 1 of 2 here] | 20 mg/kg |  |  |  | 2.8 | 
5 | CC(C)CCCCC(=O)N[C@@H](CCNC(=O)CN)C(=O)N[C@H](C(=O)N[C@@H](CCN)C(=O)N[C@H]1CCNC(=O)[C@H]([C@@H](C)O)NC(=O)[C@H](CCN)NC(=O)[C@H](CCN)NC(=O)[C@H](CC(C)C)NC(=O)[C@@H](Cc2ccccc2)NC(=O)[C@H](CCN)NC1=O)[C@@H](C)O [listing 2 of 2 here] |  | 0.033 µg/mL (≈ 0.0265 µM) | 7 mg/kg | 8 µg/mL (≈ 6.42 µM) |  | 0.028 µg/mL (≈ 0.0225 µM)
6 | CCCCCCC(N)C(=O)NCC[C@@H]1NC(=O)[C@H](CCN)NC(=O)[C@H](CC(C)C)NC(=O)[C@@H](Cc2ccccc2)NC(=O)[C@H](CCN)NC(=O)[C@@H](NC(=O)[C@H](CCN)NC(=O)[C@@H](NC(=O)[C@H](CCN)NC(=O)CCCCC(C)C)[C@@H](C)O)CCNC(=O)[C@H]([C@@H](C)O)NC1=O (stereo partly specified) | 12 mg/kg | 0.051 µg/mL (≈ 0.0383 µM) | 7 mg/kg | 0.561 µg/mL (≈ 0.422 µM) | 1.7 | 0.225 µg/mL (≈ 0.169 µM)
7 | CC(C)CCCCC(=O)N[C@@H](CCN)C(=O)N[C@H](C(=O)N[C@@H](CCN)C(=O)N[C@H]1CCNC(=O)[C@H]([C@@H](C)O)NC(=O)[C@H](CCN)NC(=O)[C@H](CCN)NC(=O)[C@H](CC(C)C)NC(=O)[C@@H](Cc2ccccc2)NC(=O)[C@H](CCN)NC1=O)[C@@H](C)O ({Heptanoyl(6-Me)}-[Dab]T[Dab][Dab][Dab][dF]L[Dab][Dab]T; lactam 4-C) [listing 1 of 2 here] | 9 mg/kg |  |  |  | 4.5 | 
8 | CC(C)CCCCC(=O)N[C@@H](CCN)C(=O)N[C@H](C(=O)N[C@@H](CCN)C(=O)N[C@H]1CCNC(=O)[C@H]([C@@H](C)O)NC(=O)[C@H](CCN)NC(=O)[C@H](CCN)NC(=O)[C@H](CC(C)C)NC(=O)[C@@H](Cc2ccccc2)NC(=O)[C@H](CCN)NC1=O)[C@@H](C)O ({Heptanoyl(6-Me)}-[Dab]T[Dab][Dab][Dab][dF]L[Dab][Dab]T; lactam 4-C) [listing 2 of 2 here] |  | 0.051 µg/mL (≈ 0.0429 µM) | 2 mg/kg | 2.8 µg/mL (≈ 2.35 µM) |  | 0.026 µg/mL (≈ 0.0219 µM)

— ChEMBL document CHEMBL1130694, “Selective chemical modifications of polymyxin B” (Bioorg Med Chem Lett, 1998)
